pEC50, pIC50: −log10 of the molar value. Structures can show the parent of a compound that is named as a salt. Where two headings read alike, the source gives them in different places.
How the values were obtained:
[1] = system: cultured nerve cells (cerebral cortex); conditions: 10 mM glutamic acid, 24 hours
[2] = system: cultured nerve cells (cerebral cortex); assay: cells; conditions: Rattus norvegicus, Cerebral cortex neuron, 24 h, read-out: ED50 (protection against glutamic acid toxicity)
[3] = system: extracted mouse vas deferens preparation; assay: Opioid activity test using an extracted mouse vas deferens preparation (suppression of electrically induced contractions); set-up: species or system male ddy mouse; conditions: electrical stimulus 0.1 Hz, 37° C.
Protocol: (§1) A male ddy mouse was used in this test. The vas deferens extracted from the animal was suspended in a Magnus tube filled with Krebes-Henseleit solution (NaCl 118 mM; KCl 4.7 mM; CaCl2 2.5 mM; KH2 PO4 1.1 mM; NaHCO3 25 mM; Glucose 11 mM) warmed to 37° C. and ventilated with 5% carbon dioxide and 95% oxygen. Electrical stimulus was performed at 0.1 Hz for 5.0 ms by means of ring-shaped platinum electrodes located above and below. Tissue contractions were recorded on a polygraph using an isometric transducer.
(§2) After adequately washing with nutrient solution and the contraction reaction stabilized, the μ agonist, naloxone, the δ agonist, NTI, or the κ agonist, norBNI, was added after which the test compound was again cumulatively added after roughly 20 minutes. The Ke value was calculated using the following calculation formula from the difference in the efficacies of both agonists.

[4] = molecular target: T1, μ receptor (Mus musculus, UniProt P42866); assay: Opioid activity test using an extracted mouse vas deferens preparation, Ke with naloxone; set-up: species or system male ddy mouse; conditions: naloxone added
T1 construct: naloxone as mu antagonist (printed 'agonist')
Protocol: as §1, §2
(§3) Ke=[Conc. of added agonist]/(IC50 ratio-1)
(§4) IC50 ratio=IC50 in the presence of agonist/IC50 in the absence of agonist

[5] = molecular target: T2, δ receptor (Mus musculus, UniProt P32300); set-up: species or system male ddy mouse; conditions: mouse vas deferens; for Ke, NTI: δ, NTI added
T2 construct: The vas deferens extracted from the animal was suspended in a Magnus tube; from tissue; host or cells: mouse (male ddy) vas deferens

[6] = molecular target: T3, κ receptor (Mus musculus, UniProt P33534); assay: Opioid activity test using an extracted mouse vas deferens preparation, Ke with norBNI; set-up: species or system male ddy mouse; conditions: for receptor selectivity of agonist (κ): in words; for Ke, norBNI: κ, norBNI added
T3 construct: from tissue; host or cells: mouse (male ddy) vas deferens
Protocol: as §1, §2, §3, §4

[7] = system: acetic acid-induced writhing in ddy mice; assay: animal or person; assay type: in vivo, 5 week old ddy mice; conditions: for ED50: s.c. 15 minutes before acetic acid
Protocol: 5 week old ddy mice were used in this test. After intraperitoneal administration of 0.1 ml of 0.6% aqueous acetic acid per 10 g of body weight, the number of writhing reactions that occurred in 10 minutes starting 10 minutes after administration was evaluated for the indicator. The test drug was administered subcutaneously into the backs of the animals 15 minutes before administration of acetic acid.

[8] = Diuretic action (urine output for 5 hours after physiological saline loading in rats); assay type: in vivo, male Wistar rats; conditions: for ED (200% urine output) / ED (500% urine output): Rattus norvegicus, sc, 5 hours after saline 20 ml/kg p.o.; for ED (200% urine output): dose giving urine output of 200 (non-dosed group = 100); for ED (500% urine output): dose giving urine output of 500 (non-dosed group = 100); for Diuretic action (in words): s.c., from ED200 values
Method in brief: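 Doses reported as ED200/ED500, i.e. those raising 5 h urine output to 200 or 500 versus undosed rats set at 100. Subcutaneous dosing preceded an oral 20 ml/kg saline load by 30 min; male Wistar rats, 7-8 weeks, deprived of water 1 h beforehand.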

[9] = Mus musculus, sc, read-out: ED50

T2 sequence (P32300 whole entry): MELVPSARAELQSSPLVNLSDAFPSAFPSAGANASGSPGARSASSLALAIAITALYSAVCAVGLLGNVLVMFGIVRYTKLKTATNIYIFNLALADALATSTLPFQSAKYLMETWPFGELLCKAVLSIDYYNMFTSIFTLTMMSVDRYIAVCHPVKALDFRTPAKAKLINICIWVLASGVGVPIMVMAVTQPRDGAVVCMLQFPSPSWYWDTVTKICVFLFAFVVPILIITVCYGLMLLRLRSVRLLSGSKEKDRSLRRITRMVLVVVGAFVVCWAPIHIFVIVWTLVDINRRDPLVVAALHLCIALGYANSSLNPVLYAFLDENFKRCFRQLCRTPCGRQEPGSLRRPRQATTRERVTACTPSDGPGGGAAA
T3 sequence (P33534 whole entry): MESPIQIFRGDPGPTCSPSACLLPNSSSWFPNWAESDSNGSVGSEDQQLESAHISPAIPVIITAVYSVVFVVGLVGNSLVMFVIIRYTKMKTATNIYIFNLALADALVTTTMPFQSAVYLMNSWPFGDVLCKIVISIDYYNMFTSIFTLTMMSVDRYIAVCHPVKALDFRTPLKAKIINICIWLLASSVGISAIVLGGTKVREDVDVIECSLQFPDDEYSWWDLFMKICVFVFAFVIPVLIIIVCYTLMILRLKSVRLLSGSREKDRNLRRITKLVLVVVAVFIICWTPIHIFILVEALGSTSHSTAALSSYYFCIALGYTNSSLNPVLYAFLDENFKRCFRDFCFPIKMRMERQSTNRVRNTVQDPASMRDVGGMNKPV
T1 sequence (P42866 whole entry): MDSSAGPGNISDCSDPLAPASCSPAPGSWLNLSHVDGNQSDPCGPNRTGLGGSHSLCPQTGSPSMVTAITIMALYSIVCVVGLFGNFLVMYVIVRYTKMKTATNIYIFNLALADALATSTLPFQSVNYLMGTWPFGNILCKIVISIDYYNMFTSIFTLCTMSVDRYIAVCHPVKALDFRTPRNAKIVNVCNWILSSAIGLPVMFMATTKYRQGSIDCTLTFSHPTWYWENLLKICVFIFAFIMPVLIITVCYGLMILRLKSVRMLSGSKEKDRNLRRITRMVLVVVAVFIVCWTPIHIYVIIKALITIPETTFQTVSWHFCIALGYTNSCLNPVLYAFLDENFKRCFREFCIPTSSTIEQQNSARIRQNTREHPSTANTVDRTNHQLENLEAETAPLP

Structure (SMILES)	Protective action against cytotoxicity caused by glutamic acid (in words) [1]	pEC50 [2]	pIC50 [3]	Ke, Naloxone [4]	Ke, NTI [5]	receptor selectivity of agonist (κ) [6]	Ke, norBNI [6]	ED50 [7]	ED (200% urine output) [8]	ED (500% urine output) [8]	ED50 [7, 9]	Diuretic action (in words) [8]	receptor selectivity of agonist (δ) ([5]; in words)	analgesic activity ([7]; s.c., in words)
CN(Cc1ccccc1)[C@@H]1CC[C@@]2(O)[C@H]3Cc4ccc(O)c5c4[C@@]2(CCN3CC2CC2)[C@H]1O5 [Compound 8, 6β-(N-Benzyl)methylamino-17-cyclopropylmethyl-4,5α-epoxy-3,14β-dihydroxymorphinan]	clearly demonstrated action that protects nerve cells from cytotoxicity caused by glutamic acid	5.24	–	–	–	–	–	–	–	–	–	–	–	–
CO[C@@H](C(=O)N(C)[C@H]1CC[C@@]2(O)[C@H]3Cc4ccc(O)c5c4[C@@]2(CCN3CC2CC2)[C@H]1O5)c1ccccc1 [Compound 30, 17-cyclopropylmethyl-3,14β-dihydroxy-4,5α-epoxy-6α-[(R)-N-methylmethoxyphenylacetamido]morphinan.cndot.hydrochloride]	clearly demonstrated action that protects nerve cells from cytotoxicity caused by glutamic acid	5.10	–	–	–	–	–	–	–	–	–	–	–	–
CN(C(=O)CSc1ccccc1)[C@H]1CC[C@@]2(O)[C@H]3Cc4ccc(O)c5c4[C@@]2(CCN3CC2CC2)[C@H]1O5 [Compound 45, 17-cyclopropylmethyl-4,5α-epoxy-3,14β-dihydroxy-6α-(N-methylthiophenoxyacetamido)morphinan.cndot.tartrate]	–	–	9.73	26.5 nM	135 nM	selective agonists for κ receptors	0.416 nM	0.0038 mg/kg	0.0081 mg/kg	0.857 mg/kg	–	–	–	–
CN(C(=O)COc1ccccc1)[C@H]1CC[C@@]2(O)[C@H]3Cc4ccc(O)c5c4[C@@]2(CCN3CC2CC2)[C@H]1O5 [Compound 38, 17-cyclopropylmethyl-3,14β-dihydroxy-4,5α-epoxy-6α-(N-methylphenoxyacetamido)morphinan.cndot.hydrochloride]	–	–	9.46	411 nM	16.6 nM	selective agonists for κ receptors	4.65 nM	–	0.0038 mg/kg	0.281 mg/kg	0.00352 mg/kg	–	–	–
CC(=O)Oc1ccc2c3c1O[C@H]1[C@H](N(C)C(=O)/C=C/c4cccc(C(F)(F)F)c4)CC[C@@]4(O)[C@@H](C2)N(CC2CC2)CC[C@]314 [Compound 141, 17-cyclopropylmethyl-3-acetoxy-14β-hydroxy-4,5α-epoxy-6β-(N-methyl-3-trifluoromethylcinnamamido)morphinan.cndot.tartrate]	–	–	9.80	142 nM	184 nM	selective agonists for κ receptors	1.39 nM	–	0.0319 mg/kg	3.45 mg/kg	0.01 mg/kg	–	–	–
CN(C(=O)CCc1ccccc1)[C@H]1CC[C@@]2(O)[C@H]3Cc4ccc(O)c5c4[C@@]2(CCN3CC2CC2)[C@H]1O5 [Compound 22, 17-Cyclopropylmethyl-4,5α-epoxy-3,14β-dihydroxy-6α-(N-methyl-3-phenylpropionamido)morphinan.cndot.tartrate]	–	–	8.92	800 nM	545 nM	selective agonists for κ receptors	5.53 nM	–	0.00095 mg/kg	0.017 mg/kg	0.0051 mg/kg	extremely strong diuretic action	–	–
COc1cccc(C#CC(=O)N(C)[C@@H]2CC[C@@]3(O)[C@H]4Cc5ccc(O)c6c5[C@@]3(CCN4CC3CC3)[C@H]2O6)c1.O=C(O)C(O)C(O)C(=O)O [Compound 173, 17-cyclopropylmethyl-3,14β-dihydroxy-4,5α-epoxy-6β-[N-methyl-3-(3-methoxyphenyl)propiolamido]morphinan tartrate]	–	–	10.70	19.6 nM	21.3 nM	selective agonists for κ receptors	0.11 nM	–	0.0275 mg/kg	1.55 mg/kg	0.011 mg/kg	–	–	–
CCCCOC(=O)N(C)[C@@H]1CC[C@@]2(O)[C@H]3Cc4ccc(O)c5c4[C@@]2(CCN3CC2CC2)[C@H]1O5 [Compound 59, 17-cyclopropylmethyl-3,14β-dihydroxy-4,5α-epoxy-6β-(N-methylbutyroxycarbamido)morphinan.cndot.tartrate]	–	–	8.94	21.3 nM	47.3 nM	selective agonists for κ receptors	0.151 nM	–	0.0105 mg/kg	2.36 mg/kg	0.0028 mg/kg	–	–	–
CN(C(=O)CCCc1ccccc1)[C@@H]1CC[C@@]2(O)[C@H]3Cc4ccc(O)c5c4[C@@]2(CCN3CC2CC2)[C@H]1O5 [Compound 150, 17-cyclopropylmethyl-4,5α-epoxy-3,14β-dihydroxy-6β-(N-methyl-4-phenylbutanoylamido)morphinan tartrate]	–	–	8.78	137 nM	55.6 nM	selective agonists for κ receptors	0.303 nM	–	0.0429 mg/kg	0.762 mg/kg	0.035 mg/kg	–	–	–
CN(C(=O)OCc1ccc([N+](=O)[O-])cc1)[C@H]1CC[C@@]2(O)[C@H]3Cc4ccc(O)c5c4[C@@]2(CCN3CC2CC2)[C@H]1O5 [Compound 43, 17-cyclopropylmethyl-3,14β-dihydroxy-4,5α-epoxy-6α-(N-methyl-4-nitrobenzyloxycarbamido)morphinan.cndot.hydrochloride]	–	–	9.19	409 nM	22.5 nM	selective agonists for κ receptors	5.31 nM	–	0.00054 mg/kg	0.0044 mg/kg	0.0055 mg/kg	extremely strong diuretic action	–	–
CCCCCC(=O)N(C)[C@H]1CC[C@@]2(O)[C@H]3Cc4ccc(O)c5c4[C@@]2(CCN3CC2CC2)[C@H]1O5 [Compound 39, 17-cyclopropylmethyl-3,14β-dihydroxy-4,5α-epoxy-6α-(N-methylhexanamido)morphinan.cndot.tartrate]	–	–	9.25	89.9 nM	99.3 nM	selective agonists for κ receptors	1.01 nM	–	0.0041 mg/kg	0.228 mg/kg	0.0088 mg/kg	–	–	–
CN(C(=O)/C=C/c1cccc([N+](=O)[O-])c1)[C@H]1CC[C@@]2(O)[C@H]3Cc4ccc(O)c5c4[C@@]2(CCN3CC2CC2)[C@H]1O5 [Compound 97, 17-cyclopropylmethyl-3,14β-dihydroxy-4,5α-epoxy-6α-(N-methyl-3-nitrocinnamamido)morphinan.cndot.phosphate]	–	–	9.61	163 nM	2.92 nM	–	13.9 nM	–	0.0045 mg/kg	0.0939 mg/kg	0.0019 mg/kg	–	selective agonists for δ receptors	–
COc1cccc(/C=C/C(=O)N(C)[C@@H]2CC[C@@]3(O)[C@H]4Cc5ccc(O)c6c5[C@@]3(CCN4CC3CC3)[C@H]2O6)c1 [Compound 63, 17-cyclopropylmethyl-3,14β-dihydroxy-4,5α-epoxy-6β-(N-methyl-3-methoxycinnamamido)morphinan.cndot.tartrate]	–	–	9.13	60.9 nM	96.9 nM	selective agonists for κ receptors	1.60 nM	–	0.0038 mg/kg	0.309 mg/kg	0.0011 mg/kg	–	–	particularly strong analgesic activity
